Test results from US10221163B2 (priority 2015, dated 2019).
Where two headings read alike, the source gives them in different places.

Key:
IMP-1 = IMP-1 (Serratia marcescens, UniProt P52699); assay: biochemical; assay type: biochemical; details: fluorescence assay, CCF2-FA substrate, 2 pM enzyme, 2 hours at 25° C.; read-out: IMP-1 IC50
Method in brief: (§1)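 Fluorescence assay of metallo-β-lactamase activity using CCF2-FA, a cephalosporin-linked 7-hydroxycoumarin–fluorescein substrate. Inhibitor, enzyme and substrate were incubated together for 2 hours at 25° C. IC50 came from a 4-parameter fit of inhibition versus inhibitor concentration.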

NDM-1 = NDM-1 (Klebsiella pneumoniae, UniProt C7C422); assay: biochemical; assay type: biochemical; details: fluorescence assay, CCF2-FA substrate, 1 pM enzyme, 2 hours at 25° C.; read-out: NDM-1 IC50
Method in brief: as §1

VIM-1 = VIM-1 (Pseudomonas aeruginosa (strain ATCC 15692 / DSM 22644 / CIP 104116 / JCM 14847 / LMG 12228 / 1C / PRS 101 / PAO1), UniProt A0A0F7KYQ8); assay: biochemical; details: CCF2-FA substrate, 30 pM enzyme, 2 hours at 25° C.
Method in brief: as §1

[1] = system: Escherichia coli expressing NDM-1 (CLB30005, CLB30016); assay type: cell-based; details: with imipenem 1 μg/ml; for Escherichia coli expressing NDM-1 (CLB30016) MITC95: 95% inhibition of bacterial growth; for Escherichia coli MITC95: NDM-1 strain, 95% inhibition of growth
Method in brief: (§2)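 Growth by absorbance after 22–24 h at 35°C defined the read-out, with imipenem fixed at 1 μg/ml alongside compound. Inocula came from overnight blood-agar colonies at 35°C, resuspended in saline and diluted 1:100 in 1.1×CAMHB.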

[2] = system: Klebsiella pneumoniae expressing VIM-1 (IHMA599644); assay type: cell-based; details: for Klebsiella pneumoniae expressing VIM-1 (IHMA599644) MITC95: with imipenem 1 μg/ml, 95% inhibition of bacterial growth; for Klebsiella pneumoniae MITC95: VIM-1 strain IHMA599644, with imipenem 1 μg/ml, 95% inhibition of growth
Method in brief: as §2

[3] = system: Serratia marcescens expressing IMP-1 (CL5741); assay type: cell-based; details: for Serratia marcescens expressing IMP-1 (CL5741) MITC95: with imipenem 1 μg/ml, 95% inhibition of bacterial growth; for Serratia marcescens MITC95: IMP-1 strain CL5741, with imipenem 1 μg/ml, 95% inhibition of growth
Method in brief: as §2

[4] = system: Pseudomonas aeruginosa efflux+ (MB9798), IMP-1; assay type: cell-based; details: concentration restoring susceptibility to imipenem at 2 μg/mL in the presence of a class A, C, D serine β-lactamase inhibitor closely related to relebactam
Method in brief: (§3)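 PAO1 pair, broth microdilution; fixed β-lactam (imipenem/ceftazidime) at ~CLSI breakpoint + fixed class A/C BLI for AmpC; serial MBLi titration; endpoint = MBLi conc. restoring susceptibility; MB9798:MB9799 ratio = efflux liability.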

[5] = system: Pseudomonas aeruginosa efflux− (MB9799), IMP-1; assay type: cell-based; details: concentration restoring susceptibility to imipenem at 2 μg/mL in the presence of a class A, C, D serine β-lactamase inhibitor closely related to relebactam
Method in brief: as §3

[6] = system: Pseudomonas aeruginosa MB9798 vs MB9799; details: ratio MITC95 PA_9798/MITC95 PA_9799
Method in brief: as §3

[7] = fluorescence assay, read-out: VIM-1 IC50

NDM-1, sequence (C7C422 whole entry, looked up, species assumed): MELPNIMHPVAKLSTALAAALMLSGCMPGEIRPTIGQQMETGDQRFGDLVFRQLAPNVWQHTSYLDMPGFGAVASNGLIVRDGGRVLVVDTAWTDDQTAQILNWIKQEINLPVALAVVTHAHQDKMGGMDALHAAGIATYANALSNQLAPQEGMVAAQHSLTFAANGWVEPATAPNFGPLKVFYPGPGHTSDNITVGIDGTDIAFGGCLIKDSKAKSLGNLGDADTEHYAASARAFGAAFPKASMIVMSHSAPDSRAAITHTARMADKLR
IMP-1, sequence (P52699 whole entry, looked up, species assumed): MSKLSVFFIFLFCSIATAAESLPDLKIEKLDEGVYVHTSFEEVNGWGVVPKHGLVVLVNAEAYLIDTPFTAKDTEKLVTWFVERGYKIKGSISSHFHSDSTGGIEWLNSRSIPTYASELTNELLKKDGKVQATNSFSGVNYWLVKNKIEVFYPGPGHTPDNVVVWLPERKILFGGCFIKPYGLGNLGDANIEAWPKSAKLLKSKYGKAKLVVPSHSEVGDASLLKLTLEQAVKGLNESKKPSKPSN

| SMILES | IC50 (IMP-1) | IC50 (NDM-1) | IC50 (VIM-1; [7]) | Escherichia coli expressing NDM-1 (CLB30016) MITC95 [1] | Klebsiella pneumoniae expressing VIM-1 (IHMA599644) MITC95 [2] | Serratia marcescens expressing IMP-1 (CL5741) MITC95 [3] | P. aeruginosa expressing IMP-1, efflux + (MB9798) MITC95 [4] | P. aeruginosa expressing IMP-1, efflux − (MB9799) MITC95 [5] | Efflux ratio [6] | IC50 (VIM-1; VIM-1 IC50, fluorescence assay) | Escherichia coli MITC95 [1] | Klebsiella pneumoniae MITC95 [2] | Serratia marcescens MITC95 [3] |
| --- | --- | --- | --- | --- | --- | --- | --- | --- | --- | --- | --- | --- | --- |
| NC[C@@H](N)CNS(=O)(=O)c1ccc(-c2cccc(-c3n[nH]c(N)n3)c2)c(-c2nn[nH]n2)c1S(N)(=O)=O [Example 230, (R)-3′-(5-amino-1H-1,2,4-triazol-3-yl)-N4-(2,3-diaminopropyl)-2-(2H-tetrazol-5-yl)-[1,1′-biphenyl]-3,4-disulfonamide] | 0.357 nM | 0.0593 nM | 0.199 nM | 1.563 µM | 3.125 µM | 1.563 µM | 1.563 µM | 1.563 µM | 1.00 | – | – | – | – |
| Nc1nc(-c2cccc(-c3ccc(S(=O)(=O)N[C@@H]4CCNC4)c(S(N)(=O)=O)c3-c3nn[nH]n3)c2)n[nH]1 [Example 231, (R)-3′-(5-amino-1H-1,2,4-triazol-3-yl)-N4-(pyrrolidin-3-yl)-2-(2H-tetrazol-5-yl)-[1,1′-biphenyl]-3,4-disulfonamide] | 0.376 nM | 0.0288 nM | 0.115 nM | 1.563 µM | 3.125 µM | 1.563 µM | 1.563 µM | 1.563 µM | 1.00 | – | – | – | – |
| CN1CC[C@@H](NS(=O)(=O)c2ccc(-c3cccc4[nH]c(N)nc34)c(-c3nn[nH]n3)c2S(N)(=O)=O)C1 [Example 232, (R)-4-(2-amino-1H-benzo[d]imidazol-4-yl)-N^1-(1-methylpyrrolidin-3-yl)-3-(2H-tetrazol-5-yl)benzene-1,2-disulfonamide] | 0.609 nM | 0.0505 nM | – | 0.3906 µM | 1.563 µM | 0.7813 µM | 1.563 µM | 0.7813 µM | 2.00 | 0.16 nM | – | – | – |
| Nc1nc2c(-c3ccc(S(=O)(=O)N[C@@H]4CCNC4)c(S(N)(=O)=O)c3-c3nn[nH]n3)cc(I)cc2[nH]1 [Example 234, (R)-4-(2-amino-6-iodo-1H-benzo[d]imidazol-4-yl)-N^1-(pyrrolidin-3-yl)-3-(2H-tetrazol-5-yl)benzene-1,2-disulfonamide] | 0.14 nM | 0.0157 nM | 0.0829 nM | 0.7813 µM | 0.7813 µM | 0.7813 µM | 0.7813 µM | 0.7813 µM | 1.00 | – | – | – | – |
| NS(=O)(=O)c1c(S(=O)(=O)N[C@@H]2CCNC2)ccc(-c2cccc3[nH]nnc23)c1-c1nn[nH]n1 [Example 235, (R)-4-(1H-benzo[d][1,2,3]triazol-4-yl)-N^1-(pyrrolidin-3-yl)-3-(2H-tetrazol-5-yl)benzene-1,2-disulfonamide] | 0.44 nM | 0.0308 nM | – | 1.563 µM | 3.125 µM | 0.7813 µM | 0.7813 µM | 1.563 µM | 0.50 | 0.105 nM | – | – | – |
| NCCNS(=O)(=O)c1ccc(-c2cccc3[nH]nnc23)c(-c2nn[nH]n2)c1S(N)(=O)=O [Example 236] | 0.544 nM | 0.0647 nM | 0.13 nM | 3.125 µM | 1.563 µM | 0.7813 µM | 0.7813 µM | 0.7813 µM | 1.00 | – | – | – | – |
| C[C@H](CN)NS(=O)(=O)c1ccc(-c2cccc3[nH]nnc23)c(-c2nn[nH]n2)c1S(N)(=O)=O [Example 237] | 0.12 nM | 0.0134 nM | 0.0552 nM | 3.125 µM | 1.563 µM | 1.563 µM | 0.7813 µM | 1.563 µM | 0.50 | – | – | – | – |
| NS(=O)(=O)c1c(S(=O)(=O)N[C@@H]2CCNC2)ccc(-c2cccc3nonc23)c1-c1nn[nH]n1 [Example 238] | 0.8 nM | 0.111 nM | 0.0653 nM | 1.563 µM | 1.563 µM | 0.7813 µM | 3.125 µM | 0.7813 µM | 4.00 | – | – | – | – |
| NCCNS(=O)(=O)c1ccc(-c2cccc3nonc23)c(-c2nn[nH]n2)c1S(N)(=O)=O [Example 239] | 1.06 nM | 0.439 nM | 0.113 nM | 0.7813 µM | 3.125 µM | 1.563 µM | 6.25 µM | 0.7813 µM | 8.00 | – | – | – | – |
| Nc1nc2c(-c3ccc(S(=O)(=O)N[C@@H]4CNC[C@@H]4N)c(S(N)(=O)=O)c3-c3nn[nH]n3)cccc2[nH]1 [Example 240] | 0.745 nM | 0.0569 nM | – | 0.1953 µM | 1.563 µM | 0.7813 µM | 0.7813 µM | 0.7813 µM | 1.00 | 0.169 nM | – | – | – |
| Nc1nc2c(-c3ccc(S(=O)(=O)N[C@H]4CNC[C@H]4N)c(S(N)(=O)=O)c3-c3nn[nH]n3)cccc2[nH]1 [Example 241] | 0.738 nM | 0.0536 nM | – | 0.5208 µM | 1.302 µM | 1.042 µM | 0.651 µM | 0.7813 µM | 0.83 | 0.182 nM | – | – | – |
| CNc1ccc(-c2ccc(S(=O)(=O)N[C@@H]3CCNC3)c(S(N)(=O)=O)c2-c2nn[nH]n2)cn1 [Example 242] | 0.157 nM | 0.0611 nM | 0.0841 nM | 0.7813 µM | 1.563 µM | 0.7813 µM | 0.7813 µM | 0.7813 µM | 1.00 | – | – | – | – |
| CNc1ccc(-c2ccc(S(=O)(=O)NCCN)c(S(N)(=O)=O)c2-c2nn[nH]n2)cn1 [Example 243] | 0.312 nM | 0.276 nM | 0.194 nM | – | – | – | 0.7813 µM | 0.7813 µM | 1.00 | – | 0.3906 µM | 1.563 µM | 0.3906 µM |
| CN([C@H]1CCNC1)S(=O)(=O)c1ccc(-c2cccc3[nH]c(N)nc23)c(-c2nn[nH]n2)c1S(N)(=O)=O [Example 244, (S)-4-(2-amino-1H-benzo[d]imidazol-7-yl)-N1-methyl-N1-(pyrrolidin-3-yl)-3-(1H-tetrazol-5-yl)benzene-1,2-disulfonamide] | 6.58 nM | 1.3 nM | 6.75 nM | – | – | – | 1.563 µM | 0.7813 µM | 2.00 | – | 0.7813 µM | 1.563 µM | 1.563 µM |
